# Experiments:
# Arabidopsis thaliana [1] = experiment: Small-scale drift (volatility) assay; set-up: species or system Arabidopsis thaliana Col-0; conditions: for drift burn (volatility), FIG. 6: 15 mM and 30 mM, same methodology; for drift behaviour, FIG. 27: 2.5 or 5 mM, images recorded at 17 days; for drift burn (volatility), FIG. 5: 5, 10 or 15 mM in lid in centre of pot, imaged after 2 weeks
# Procedure: A small-scale drift assay was established. Pots (63×63×59 mm) were filled with Seedling Substrate Plus+ soil (Bord na Móna Horticulture Ltd, Newbridge, Ireland) consisting of Irish peat. Soil was pre-wet before sowing to saturation and a plastic lid from a 50 mL tube placed in the centre of each pot. Seeds of wild type Col-0 Arabidopsis thaliana were sown around each of the lids. Seeds were cold-treated for 3 days in the dark at 4° C. to synchronize germination and then grown in a chamber at 22° C., with 60% relative humidity and in a 16 h light/8 h dark photoperiod. […] After growth for 2 weeks plants were imaged. (In the case of FIG. 27, images were recorded at 17 days).
# A second experiment was performed using the same methodology, but at higher concentrations (15 mM and 30 mM).
# [2] = test system: Ratibida columnifera (prairie coneflower); experiment: Activity vs a panel of plants: Ratibida columnifera; format: in vivo; conditions: 31.25 μM to 4000 μM; imaged day 12
# Description: (§1) Pots (63×63×59 mm) were filled with Seedling Substrate Plus+ soil (Bord na Móna Horticulture Ltd, Newbridge, Ireland) consisting of Irish peat. Soil was pre-wet to saturation before sowing seeds. Seeds of the following species were sown. • Arabidopsis thaliana • Cynodon dactylon (couch grass) • Eragrostis tef (tef) • Lolium rigidum (herbicide resistant ryegrass) • Ratibida columnifera (prairie coneflower) • Raphanus raphanistrum (wild radish) • Solanum lycopersicum (tomato) • Triticum aestivum (wheat)
# (§2) The number of seeds depended on germination rate and plant size. Seeds were sown in pots (63×63×59 mm) of Seedling Substrate Plus+ soil (Bord na Móna Horticulture Ltd, Newbridge, Ireland) consisting of Irish peat. Soil was pre-wet before sowing to saturation and watered throughout the experiment to maintain adequate moisture. No fertilizer was added. Seeds were cold-treated 7 days in the dark at 4° C. to synchronize germination and grown in a chamber at 22° C., with 60% relative humidity and a 16 h light/8 h dark photoperiod. […]
# (§3) Each compound was tested on seedlings by pipetting 600 μL of 0, 31.25, 62.5, 125, 250, 500, 1000, 2000 or 4000 μmol/L solutions directly onto the plants; these quantities and concentrations are equivalent to ˜10, 20, 40, 78, 156, 312, 625 and 1250 g/ha a.i. […]
# [3] = test system: Cynodon dactylon (couch grass); experiment: Activity vs a panel of plants: Cynodon dactylon; format: in vivo; conditions: 31.25 μM to 4000 μM; imaged day 10
# Description: as §1, §2, §3
# [4] = test system: Triticum aestivum (wheat); experiment: Activity vs a panel of plants: Triticum aestivum; format: in vivo; conditions: 31.25 μM to 4000 μM; imaged day 12
# Description: as §1, §2, §3
# Arabidopsis thaliana [5] = experiment: Activity vs a panel of plants: Arabidopsis thaliana; format: in vivo; conditions: 31.25 μM to 4000 μM; imaged day 12
# Description: as §1, §2, §3
# Eragrostis tef (tef) = experiment: Activity vs a panel of plants: Eragrostis tef; format: in vivo; conditions: 31.25 μM to 4000 μM; imaged day 12
# Description: as §1, §2, §3
# [6] = test system: Solanum lycopersicum (tomato); experiment: Activity vs a panel of plants: Solanum lycopersicum; format: in vivo; conditions: 31.25 μM to 4000 μM; imaged day 10
# Description: as §1, §2, §3
# [7] = test system: A. thaliana wild type Col-0 or single-locus DMOc line; experiment: Compatibility with the DMOc dicamba tolerance trait; format: in vivo, Arabidopsis thaliana; conditions: wild type vs DMOc line; dicamba 7-125 μM, 1·HCl 31-500 μM; sprayed at 4 and 7 days; imaged Day 11
# Description: To recreate dicamba tolerance by dicamba monooxygenase in A. thaliana similarly to that made by Behrens et al. (2007, Science 316: 1185-1188) a synthetic gene encoding the oxygenaseDIC from Stenotrophomonas maltophilia strain DI-6 (GenBank accession AY786443) was made to include a 58-residue chloroplast targeting leader used by Anderson and Smith (1986, Biochem. J. 240: 709-715) and incorporated a […] mutation said to provide useful changes in pH and temperature optima (See, for example, […] in International Patent Application WO2007146706A2). A BamHI site immediately preceding the sequence encoding the start Met and a SacI site immediately after the stop codon were used to subclone this synthetic DMOc gene into pMDC43 (Curtis and Grossniklaus 2003 Plant Physiol. 133: 462-469), from which the mGFP6 coding sequence and Gateway recombination cassette were removed by the same restriction enzymes, putting DMOc under control of a double CaM[…] promoter and providing it the nopaline synthase terminator. The plasmid pMDC43-DMOc was transferred from E. coli containing the plasmid to Agrobacterium tumefaciens (strain LBA4404) using a helper strain (E. coli […] pRK2013). Wild type Col-0 Arabidopsis thaliana was transformed by in planta transformation. The first transgenic generation (T1) was selected on MS-agar plates (1% agar, 1×MS salts, pH 5.7, 1% glucose) containing 20 μg/mL hygromycin. […]
# [8] = test system: Raphanus raphanistrum (wild radish); experiment: Activity vs a panel of plants: Raphanus raphanistrum; format: in vivo; conditions: 31.25 μM to 4000 μM; imaged day 10
# Description: as §1, §2, §3
# [9] = test system: Lolium rigidum (herbicide resistant ryegrass); experiment: Activity vs a panel of plants: Lolium rigidum; format: in vivo; conditions: 31.25 μM to 4000 μM; imaged day 12
# Description: as §1, §2, §3
"drift burn (volatility), FIG. 6 (Arabidopsis thaliana [1])","drift behaviour, FIG. 27 (Arabidopsis thaliana [1])","drift burn (volatility), FIG. 5 (Arabidopsis thaliana [1])",SMILES,"activity against Ratibida columnifera on an equimolar basis, FIG. 12 [2]","activity against Cynodon dactylon on an equimolar basis, FIGS. 8 and 9 [3]","activity against Triticum aestivum on an equimolar basis, FIG. 17 [4]","activity against Arabidopsis thaliana on an equimolar basis, FIG. 7 (Arabidopsis thaliana [5])","activity against Eragrostis tef on an equimolar basis, FIG. 10 (Eragrostis tef (tef))","activity against Solanum lycopersicum on an equimolar basis, FIGS. 15 and 16 [6]","compatibility with the dicamba tolerance (DMOc) trait, FIG. 26 [7]","activity against Raphanus raphanistrum on an equimolar basis, FIGS. 13 and 14 [8]","activity against Lolium rigidum on an equimolar basis, FIG. 11 [9]"
did not show any drift burn,does not drift,no drift burn at all was visible,"COc1c(Cl)ccc(Cl)c1C(=O)OCCN(C)C.Cl [Compound 1. HCl, 2-(dimethylamino)ethyl 3,6-dichloro-2-methoxybenzoate hydrochloride]",comparable activity,comparable activity,comparable activity,comparable activity,comparable activity,comparable activity,Compatible with the DMOc Trait,comparable activity,comparable activity
did,drifted,burn symptoms are apparent,"COc1c(Cl)ccc(Cl)c1C(=O)O [dicamba, 3,6-dichloro-2-methoxybenzoic acid, reference compound]",comparable activity,comparable activity,comparable activity,comparable activity,comparable activity,comparable activity,compatibility,comparable activity,comparable activity
